From patent US6417141B1, “Substituted aminouracils” (Bayer Aktiengesellschaft, priority 1995, dated 2002)

Assays:
Format in all cases: in vivo
Conditions in all cases: greenhouse, 125 g/ha a.i., rated after three weeks vs untreated control
Abutilon [1] = assay: Pre-emergence test
Experimental: (§1) Solvent: 5 parts by weight of acetone
(§2) Emulsifier: 1 part by weight of alkylaryl polyglycol ether
(§3) To produce a suitable preparation of active compound, 1 part by weight of active compound is mixed with a stated amount of solvent, the stated amount of the emulsifier is added and the concentrate is diluted with water to the desired concentration.
(§4) Seeds of the test plants are sown in normal soil. After about 24 hours, the soil is watered with the preparation of the active compound. It is advantageous to keep the amount of water per unit area constant. The concentration of the active compound in the preparation is immaterial, only the amount of active compound applied per unit area matters.
(§5) After three weeks, the degree of damage to the plants is rated in % damage by comparison with the development of the untreated control.
(§6) 0%=no effect (like untreated control)

Alopecurus [2] = assay: Pre-emergence test
Experimental: as §1, §2, §3, §4, §5, §6

Amaranthus [3] = assay: Pre-emergence test
Experimental: as §1, §2, §3, §4, §5, §6

Avena [4] = assay: Pre-emergence test
Experimental: as §1, §2, §3, §4, §5, §6

Cyperus [5] = assay: Pre-emergence test
Experimental: as §1, §2, §3, §4, §5, §6

Galium [6] = assay: Pre-emergence test
Experimental: as §1, §2, §3, §4, §5, §6

Setaria [7] = assay: Pre-emergence test
Experimental: as §1, §2, §3, §4, §5, §6

Sinapis [8] = assay: Pre-emergence test
Experimental: as §1, §2, §3, §4, §5, §6

Xanthium [9] = assay: Pre-emergence test
Experimental: as §1, §2, §3, §4, §5, §6

Abutilon [10] = assay: Post-emergence test
Experimental: as §1, §2
(§7) To produce a suitable preparation of active compound, 1 part by weight of active compound is mixed with the stated amount of solvent, the stated amount of emulsifier is added and the concentrate is diluted with water to the desired concentration.
(§8) Test plants which have a height of 5-15 cm are sprayed with the preparation of the active compound in such a way as to apply the particular amounts of active compound desired per unit area.
as §5, §6

Alopecurus [11] = assay: Post-emergence test
Experimental: as §1, §2, §7, §8, §5, §6

Amaranthus [12] = assay: Post-emergence test
Experimental: as §1, §2, §7, §8, §5, §6

Avena [13] = assay: Post-emergence test
Experimental: as §1, §2, §7, §8, §5, §6

Cyperus [14] = assay: Post-emergence test
Experimental: as §1, §2, §7, §8, §5, §6

Galium [15] = assay: Post-emergence test
Experimental: as §1, §2, §7, §8, §5, §6

Setaria [16] = assay: Post-emergence test
Experimental: as §1, §2, §7, §8, §5, §6

Sinapis [17] = assay: Post-emergence test
Experimental: as §1, §2, §7, §8, §5, §6

Xanthium [18] = assay: Post-emergence test
Experimental: as §1, §2, §7, §8, §5, §6

COc1cc(-n2c(=O)cc(C(F)(F)F)n(N)c2=O)c(F)cc1C#N [Example 1, 1-(4-cyano-2-fluoro-5-methoxy-phenyl)-3,6-dihydro-2,6-dioxo-3-amino-4-trifluoromethyl-1(2H)-pyrimidine]
100%: degree of damage to the plants, Abutilon (Abutilon [1]) | degree of damage to the plants, Alopecurus (Alopecurus [2]) | degree of damage to the plants, Amaranthus (Amaranthus [3]) | degree of damage to the plants, Avena (Avena [4]) | degree of damage to the plants, Cyperus (Cyperus [5]) | degree of damage to the plants, Galium (Galium [6]) | degree of damage to the plants, Setaria (Setaria [7]) | degree of damage to the plants, Sinapis (Sinapis [8]) | degree of damage to the plants, Xanthium (Xanthium [9]) | degree of damage to the plants, Abutilon (Abutilon [10]) | degree of damage to the plants, Alopecurus (Alopecurus [11]) | degree of damage to the plants, Amaranthus (Amaranthus [12]) | degree of damage to the plants, Avena (Avena [13]) | degree of damage to the plants, Cyperus (Cyperus [14]) | degree of damage to the plants, Galium (Galium [15]) | degree of damage to the plants, Setaria (Setaria [16]) | degree of damage to the plants, Sinapis (Sinapis [17]) | degree of damage to the plants, Xanthium (Xanthium [18])
